Assay results reported in patent US8697730B2, “5-lipoxygenase activating protein (FLAP) inhibitor” (Panmira Pharmaceuticals, LLC, priority 2007, dated 2014).
One block for each molecule: values may come before it.

What was measured:
[1] = system: allergen-induced early and late phases of lung-volume decline; details: clinical trials / allergen-challenge studies; cited from earlier work
chronic asthma = chronic asthma studies; cited from earlier work
[2] = Storage stability of polymorphs; type: physicochemical; details: for change after 1 week storage (crystallinity / x-ray powder diffraction pattern, colour): 1 week at 40° C. and 75% RH
[3] = Aqueous solubility determination (thermodynamic solubility); details: for Appearance of mixture after equilibration for 24 hours: suspended in 0.25 mL of water, 25° C.; for pH of saturated solution / Concentration of filtrate (as mg/ml of free base): water, equilibrated at 25° C. for 24 hours; for Concentration of filtrate (as mg/ml of free base): HPLC
[4] = Gravimetric Vapor Sorption (GVS); details: 25° C.; for hygroscopicity in words: GVS; for total weight change: between 0% RH and 90% RH
[5] = Examination of liver weight change in mice; details: oral 250 mg/kg daily for 4 days, compared with vehicle control
Method: Twenty-four hours following the final administration mice were placed into an enclosed Plexiglas chamber and exposed to CO2 for a period of 1-2 minutes or until breathing ceased. They were then removed and blood was taken via a cardiac puncture and cervical dislocation was performed. Subjects were next placed in a supine position and a midline incision made. All organs were inspected and the livers removed by careful dissection. Liver weights were recorded as well as any gross abnormalities.

pH solubility profile = type: physicochemical; details: about 25° C.
[6] = system: whole blood ionophore-stimulated leukotriene LTB4; assay: Phase 1 study, whole blood ionophore-stimulated LTB4; type: in vivo, human
Method: (§1) Pharmacodynamics: Whole blood ionophore-stimulated leukotriene LTB4 and urinary LTE4 production are assayed by ELISA and mass spectrometry, respectively.
(§2) Obtain pre-dose fasting blood samples for hematology determinations. Obtain pre-dose fasting blood samples for serum chemistry determinations. Obtain pre-dose blood samples (5 mL EDTA and 4 mL heparinized) for baseline PK and LTB4. Collect ‘spot’ urine prior to study drug administration for baseline (pre-dose) LTE4. Administer study drug. […] Collect blood samples (2 mL heparinized) for LTB4 at 0.5, 1, 2, 3, 4, 6, 8, and 12 hours. Collect urine for LTE4 for the following separate intervals: 0-3, 3-6, 6-9, and 9-12 hours. For twice daily dosing group (if conducted): administer study drug 12 hours±30 minutes after prior dose, preceded by ≧2 hours fast.
(§3) Obtain pre-dose fasting blood samples for hematology determinations. Obtain pre-dose fasting blood samples for serum chemistry determinations. […] Collect blood samples (2 mL heparinized) for LTB4 at 24 hours after the first study drug administration; 4 mL blood will be collected at this time point in the Single Dose Phase. Collect ‘spot’ urine sample for LTE4 at 24 and 36 hours after first study drug administration.
(§4) Obtain pre-dose blood samples (5 mL EDTA and 2 mL heparinized) for PK and LTB4. Collect pre-dose urine for LTE4. Administer study drug (last dose of drug). […] Collect blood samples (2 mL heparinized) for LTB4 at 0.5, 1, 2, 3, 4, 6, 8, and 12 hours. Collect urine for LTE4 for the following separate intervals: 0-3, 3-6, 6-9, and 9-12 hours after study drug administration.
(§5) Record vital signs 24 hours after Day 11 study drug administration. […] Collect blood sample (4 mL heparinized) for LTB4 at 24 hours after Day 11 study drug administration. Collect ‘spot’ urine sample for LTE4 at 24 hours after Day 11 study drug administration.
(§6) Whole blood ionophore-stimulated leukotriene LTB4 and urinary LTE4 production were assayed by ELISA and mass spectrometry, respectively.

CYP2C19 = CYP2C19 (Homo sapiens, UniProt P33261); details: microsomes
CYP3A4 = CYP3A4 (Homo sapiens, UniProt P08684); details: microsomes
urinary LTE4 production = assay: Phase 1 study, urinary LTE4; type: in vivo, human
Method: as §1, §2, §3, §4, §5, §6

CYP2D6 = CYP2D6 (Homo sapiens, UniProt P10635); details: microsomes
CYP2C9 [7] = details: tested at 10 μM; diclofenac substrate
CYP2C9 [8] = molecular target: CYP2C9 (Homo sapiens, UniProt P11712); details: microsomes
CYP1A2 = molecular target: T1, CYP1A2 (Homo sapiens, UniProt P05177)
T1 sequence (P05177 1-516): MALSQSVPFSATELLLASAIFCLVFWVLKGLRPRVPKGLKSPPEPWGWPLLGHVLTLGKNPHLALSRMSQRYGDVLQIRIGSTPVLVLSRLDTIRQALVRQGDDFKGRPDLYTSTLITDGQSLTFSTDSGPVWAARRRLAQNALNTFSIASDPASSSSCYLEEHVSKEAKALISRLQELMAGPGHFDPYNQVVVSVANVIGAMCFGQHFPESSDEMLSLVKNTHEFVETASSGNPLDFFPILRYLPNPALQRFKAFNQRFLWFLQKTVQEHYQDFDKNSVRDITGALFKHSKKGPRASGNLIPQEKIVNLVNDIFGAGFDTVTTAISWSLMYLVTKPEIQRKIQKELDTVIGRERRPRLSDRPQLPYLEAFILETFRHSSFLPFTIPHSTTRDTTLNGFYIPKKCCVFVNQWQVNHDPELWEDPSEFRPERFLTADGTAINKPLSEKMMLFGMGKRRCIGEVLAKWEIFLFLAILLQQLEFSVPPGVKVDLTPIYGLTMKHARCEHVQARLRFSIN

[9] = Cycle 1, Scan 1, Adsorption, % RH load to 40
[10] = Cycle 1, Scan 2, Adsorption, % RH 0 to 40
[11] = Cycle 1, Scan 2, Adsorption, % RH 40 to 90
[12] = Cycle 1, Scan 2, Desorption, % RH 90 to 0
[13] = Cycle 2, Scan 3, Adsorption, % RH 40 to 90
[14] = Cycle 2, Scan 4, Adsorption, % RH 0 to 40
[15] = Cycle 2, Scan 4, Desorption, % RH 90 to 0
[16] = profile that may be obtained from a single dose administration to a human, dose not stated

CYP3A4, sequence (P08684 whole entry): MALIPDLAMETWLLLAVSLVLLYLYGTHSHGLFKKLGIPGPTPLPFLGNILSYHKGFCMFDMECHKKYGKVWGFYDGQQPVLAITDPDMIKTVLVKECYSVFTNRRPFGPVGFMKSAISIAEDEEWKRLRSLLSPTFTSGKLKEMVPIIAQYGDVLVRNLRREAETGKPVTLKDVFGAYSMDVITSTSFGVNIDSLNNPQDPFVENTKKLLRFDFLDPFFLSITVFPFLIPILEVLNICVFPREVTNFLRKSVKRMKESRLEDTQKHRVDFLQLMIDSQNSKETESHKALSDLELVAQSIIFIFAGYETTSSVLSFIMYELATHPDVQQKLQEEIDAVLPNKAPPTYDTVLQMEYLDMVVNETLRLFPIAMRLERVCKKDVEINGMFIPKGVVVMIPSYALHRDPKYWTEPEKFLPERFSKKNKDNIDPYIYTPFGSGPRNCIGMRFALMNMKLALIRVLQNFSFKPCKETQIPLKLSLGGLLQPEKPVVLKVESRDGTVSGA
CYP2D6, sequence (P10635 whole entry): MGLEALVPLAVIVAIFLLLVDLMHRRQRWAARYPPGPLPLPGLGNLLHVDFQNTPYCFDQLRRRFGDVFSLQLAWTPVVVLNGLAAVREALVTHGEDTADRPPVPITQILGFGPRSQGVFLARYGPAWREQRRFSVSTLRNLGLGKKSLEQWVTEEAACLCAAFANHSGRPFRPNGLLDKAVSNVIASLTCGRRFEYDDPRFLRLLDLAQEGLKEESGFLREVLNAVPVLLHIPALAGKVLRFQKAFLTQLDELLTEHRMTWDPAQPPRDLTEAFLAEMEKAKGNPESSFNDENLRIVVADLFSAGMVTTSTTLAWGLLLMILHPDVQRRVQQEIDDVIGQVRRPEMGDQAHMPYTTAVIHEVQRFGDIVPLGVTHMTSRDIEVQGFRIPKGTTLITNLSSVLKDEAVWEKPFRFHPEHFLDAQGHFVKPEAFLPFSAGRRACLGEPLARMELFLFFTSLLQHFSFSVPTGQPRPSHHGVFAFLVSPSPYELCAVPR
CYP2C9 (Homo sapiens, UniProt P11712), sequence (P11712 whole entry): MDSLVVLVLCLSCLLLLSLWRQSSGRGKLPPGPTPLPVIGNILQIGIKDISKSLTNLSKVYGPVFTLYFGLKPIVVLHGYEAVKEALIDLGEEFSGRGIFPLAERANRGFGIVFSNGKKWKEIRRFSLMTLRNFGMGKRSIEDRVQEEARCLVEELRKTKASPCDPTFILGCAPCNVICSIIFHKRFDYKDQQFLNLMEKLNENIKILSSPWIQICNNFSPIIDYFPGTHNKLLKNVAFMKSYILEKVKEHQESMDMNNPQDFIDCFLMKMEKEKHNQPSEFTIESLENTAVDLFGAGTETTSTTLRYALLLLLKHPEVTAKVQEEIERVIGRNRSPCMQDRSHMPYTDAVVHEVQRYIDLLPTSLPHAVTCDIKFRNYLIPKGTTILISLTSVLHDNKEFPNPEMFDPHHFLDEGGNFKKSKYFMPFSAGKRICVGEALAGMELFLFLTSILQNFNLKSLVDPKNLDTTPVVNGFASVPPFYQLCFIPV
CYP2C19, sequence (P33261 whole entry): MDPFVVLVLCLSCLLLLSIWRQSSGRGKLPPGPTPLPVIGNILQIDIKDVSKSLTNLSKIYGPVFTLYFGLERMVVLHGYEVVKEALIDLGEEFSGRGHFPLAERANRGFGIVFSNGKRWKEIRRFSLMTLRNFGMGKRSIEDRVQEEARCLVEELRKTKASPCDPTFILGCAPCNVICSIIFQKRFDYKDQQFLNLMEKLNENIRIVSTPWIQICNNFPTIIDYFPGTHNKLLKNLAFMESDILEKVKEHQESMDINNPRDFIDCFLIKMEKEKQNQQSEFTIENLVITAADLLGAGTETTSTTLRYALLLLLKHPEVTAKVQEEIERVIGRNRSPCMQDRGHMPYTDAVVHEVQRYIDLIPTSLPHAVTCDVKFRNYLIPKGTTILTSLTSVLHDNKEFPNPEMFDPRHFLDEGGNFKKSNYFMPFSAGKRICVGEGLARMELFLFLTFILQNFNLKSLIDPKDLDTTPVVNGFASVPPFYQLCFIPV

SMILES: CC(C)(C)Sc1c(CC(C)(C)C(=O)O)n(Cc2ccc(Cl)cc2)c2ccc(OCc3ccc4ccccc4n3)cc12 [MK-0591, 3-[1-(4-chlorobenzyl)-3-(tert-butylthio)-5-(quinolin-2-ylmethoxy)indol-2-yl]-2,2-dimethyl propanoic acid]
- efficacy in words [1]: shown efficacy
- efficacy in words (chronic asthma): shown efficacy

- change after 1 week storage (crystallinity / x-ray powder diffraction pattern, colour) [2]: No change
- physical and chemical stability ([2]; 5° C., 25° C./60% RH and 40° C./75% RH for at least two months): physically and chemically stable
- Appearance of mixture after equilibration for 24 hours [3]: Fine Suspension
- pH of saturated solution [3]: 10.05
- Concentration of filtrate (as mg/ml of free base) [3]: >10 mg/mL
- stability to changes in humidity (XRPD after GVS experiment) [4]: stable to changes in humidity
- % weight change [4, 9]: −0.37%
- % weight change [4, 10]: 1.98%
- % weight change [4, 11]: 13.83%
- % weight change [4, 12]: −16.23%
- % weight change [4, 13]: 14.52%
- % weight change [4, 14]: 2.01%
- % weight change [4, 15]: −16.51%
- hygroscopicity in words [4]: hygroscopic
- total weight change [4]: 16%
SMILES: COc1ccc(-c2ccc(Cn3c(CC(C)(C)C(=O)O)c(SC(C)(C)C)c4cc(OCc5ccccn5)ccc43)cc2)cn1 [Form C]
- aqueous solubility compared between forms [3]: more soluble than Form B and the crystalline free acid

- liver weight alteration [5]: 36.0%
SMILES: CC(c1cc2ccccc2s1)N(O)C(N)=O (stereo not drawn) [Zileuton]
- efficacy in words [1]: not effective
- efficacy in words (chronic asthma): exhibited clinical efficacy

- physical and chemical stability ([2]; conditions not stated): physically and chemically stable
- Concentration (mg/mL) (pH solubility profile; pH about 1.1): about 0.690 mg/mL
- Concentration (mg/mL) (pH solubility profile; pH about 4.9): about 0.0594 mg/mL
- Concentration (mg/mL) (pH solubility profile; pH about 8.8): about 0.00573 mg/mL
- Concentration (mg/mL) (pH solubility profile; pH about 9.2): about 9.80 mg/mL
- Concentration (mg/mL) (pH solubility profile; pH about 9.8): about 53.1 mg/mL
- Concentration (pH solubility profile; pH about 10.4): >70000 µg/mL
- Appearance of mixture after equilibration for 24 hours [3]: Fine Suspension
- pH of saturated solution [3]: 9.95
- Concentration of filtrate (as mg/ml of free base) [3]: 5.4 mg/mL
- stability to changes in humidity (XRPD after GVS experiment) [4]: stable to changes in humidity
- % weight change [4, 9]: −1.54%
- % weight change [4, 10]: 3.73%
- % weight change [4, 11]: 20.92%
- % weight change [4, 12]: −25.51%
- % weight change [4, 13]: 20.72%
- % weight change [4, 14]: 3.66%
- % weight change [4, 15]: −24.45%
- hygroscopicity in words [4]: very hygroscopic
- total weight change [4]: 26%
SMILES: COc1ccc(-c2ccc(Cn3c(CC(C)(C)C(=O)O)c(SC(C)(C)C)c4cc(OCc5ccccn5)ccc43)cc2)cn1 [Form B]
- change after 1 week storage (crystallinity / x-ray powder diffraction pattern, colour) [2]: loses its crystallinity and the colour changes to yellow

SMILES: O=C(O)[C@@H](c1ccc(OCc2ccc3ccccc3n2)cc1)C1CCCC1 [BAYX-1005, (R)-2-[4-(quinolin-2-yl-methoxy)phenyl]-2-cyclopentyl acetic acid]
- efficacy in words [1]: shown efficacy

- inhibition in words (CYP2C19): weakly inhibited
- IC50 (CYP3A4; human, pH 7.4): > 50 µM
- inhibition in words (CYP3A4): No apparent inhibition
- inhibition in words (CYP2D6): No apparent inhibition
- CYP2C9 induction in words (CYP2C9 [7]): No apparent induction
- inhibition in words (CYP2C9 [8]): No apparent inhibition
- inhibition in words (CYP1A2): No apparent inhibition
SMILES: COc1ccc(-c2ccc(Cn3c(CC(C)(C)C(=O)O)c(SC(C)(C)C)c4cc(OCc5ccccn5)ccc43)cc2)cn1 [sodium 3-[5-(pyrid-2-ylmethoxy)-3-(2-methyl-2-propylthio)-1-] [sodium 3-[5-(pyridin-2-ylmethoxy)-3-(2-methyl-2-propylthio)-1-[4-(2-methoxypyridin-5-yl)benzyl]-indol-2-yl]-2,2-dimethyl-propionate]
- inhibition of blood LTB4 levels at 8 hours (Ionophore Challenge) [6, 16]: ≥ 80%
- inhibition of blood LTB4 levels at 24 hours (Ionophore Challenge) [6, 16]: ≥ 30%
- inhibition of urinary LTE4 levels at 24 hours (urinary LTE4 production; [16]): ≥ 80%

- CYP2C9 induction in words (CYP2C9 [7]): not an inducer
SMILES: COc1ccc(-c2ccc(Cn3c(CC(C)(C)C(=O)O)c(SC(C)(C)C)c4cc(OCc5ccccn5)ccc43)cc2)cn1 [3-[5-(pyridin-2-ylmethoxy)-3-(2-methyl-2-propylthio)-1-[4-(2]

SMILES: COc1ccc(-c2ccc(Cn3c(CC(C)(C)C(=O)O)c(SC(C)(C)C)c4cc(OCc5ccccn5)ccc43)cc2)cn1
- effect on LTB4 levels in humans, in words ([6]; clinical trial summary): lowers
- effect on LTE4 levels in humans, in words (urinary LTE4 production; clinical trial summary): lowers

SMILES: CC(C)c1ccc2c(c1)c(SC(C)(C)C)c(CC(C)(C)C(=O)O)n2Cc1ccc(Cl)cc1 [MK-866, 3-[1-(4-chlorobenzyl)-3-(tert-butylthio)-5-(isopropyl)-indol-2-yl]-2,2-dimethyl propanoic acid]
- efficacy in words [1]: shown efficacy

- Appearance of mixture after equilibration for 24 hours [3]: Suspension
- pH of saturated solution [3]: 7.88
- Concentration of filtrate (as mg/ml of free base) [3]: 0.0019 mg/mL
- stability to changes in humidity (XRPD after GVS experiment) [4]: stable to changes in humidity
- % weight change ([4]; Cycle 1, Scan 1, Adsorption, % RH load to 40, listed as crystalline 3-[5-(pyridin-2-ylmethoxy)-3-(2-methyl-2-propylthio)-1-[4-(2-methoxy)): 0.00%
- % weight change ([4]; Cycle 1, Scan 2, Adsorption, % RH 0 to 40, listed as crystalline 3-[5-(pyridin-2-ylmethoxy)-3-(2-methyl-2-propylthio)-1-[4-(2-methoxy)): 0.07%
- % weight change ([4]; Cycle 1, Scan 2, Adsorption, % RH 40 to 90, listed as crystalline 3-[5-(pyridin-2-ylmethoxy)-3-(2-methyl-2-propylthio)-1-[4-(2-methoxy)): 0.34%
- % weight change ([4]; Cycle 1, Scan 2, Desorption, % RH 90 to 0, listed as crystalline 3-[5-(pyridin-2-ylmethoxy)-3-(2-methyl-2-propylthio)-1-[4-(2-methoxy)): −0.42%
- % weight change ([4]; Cycle 2, Scan 3, Adsorption, % RH 40 to 90, listed as crystalline 3-[5-(pyridin-2-ylmethoxy)-3-(2-methyl-2-propylthio)-1-[4-(2-methoxy)): 0.29%
- % weight change ([4]; Cycle 2, Scan 4, Adsorption, % RH 0 to 40, listed as crystalline 3-[5-(pyridin-2-ylmethoxy)-3-(2-methyl-2-propylthio)-1-[4-(2-methoxy)): 0.08%
- % weight change ([4]; Cycle 2, Scan 4, Desorption, % RH 90 to 0, listed as crystalline 3-[5-(pyridin-2-ylmethoxy)-3-(2-methyl-2-propylthio)-1-[4-(2-methoxy)): −0.40%
- hygroscopicity in words ([4]; listed as Crystalline 3-[5-(pyrid-2-ylmethoxy)-3-(2-methyl-2-propylthio)-1-[4-(2-methoxypy)): not hygroscopic
SMILES: COc1ccc(-c2ccc(Cn3c(CC(C)(C)C(=O)O)c(SC(C)(C)C)c4cc(OCc5ccccn5)ccc43)cc2)cn1 [Crystalline Free Acid]
